Test results from article PMC8401933 (Molecules, 2021).

Assays:
STK33 = biological target: T1, STK33 (Homo sapiens, UniProt Q9BYT3); assay: KINOMEscan binding; conditions: read-out: Percent Control
T1 construct: purchased Eurofins DiscoverX KINOMEscan

EPHA7 = biological target: T2, EPHA7 (Homo sapiens, UniProt Q15375); assay: KINOMEscan binding; conditions: read-out: Percent Control
T2 construct: purchased Eurofins DiscoverX KINOMEscan

FLT3(R834Q) = biological target: T3, FLT3(R834Q) (Homo sapiens, UniProt P36888, R834Q); assay: KINOMEscan binding; conditions: read-out: Percent Control
T3 construct: purchased Eurofins DiscoverX KINOMEscan

TAOK2 = biological target: T4, TAOK2 (Homo sapiens, UniProt Q9UL54); assay: KINOMEscan binding; conditions: read-out: Percent Control
T4 construct: purchased Eurofins DiscoverX KINOMEscan

[1] = biological target: T5, TYK2(JH1domain-catalytic) (Homo sapiens, UniProt P29597); assay: KINOMEscan binding; conditions: read-out: Percent Control
T5 construct: TYK2(JH1domain-catalytic); purchased Eurofins DiscoverX KINOMEscan

ERBB4 = biological target: T6, ERBB4 (Homo sapiens, UniProt Q15303); assay: KINOMEscan binding; conditions: read-out: Percent Control
T6 construct: purchased Eurofins DiscoverX KINOMEscan

PKN1 = biological target: T7, PKN1 (Homo sapiens, UniProt Q16512); assay: KINOMEscan binding; conditions: read-out: Percent Control
T7 construct: purchased Eurofins DiscoverX KINOMEscan

[2] = biological target: T8, JAK1(JH2domain-pseudokinase) (Homo sapiens, UniProt P23458); assay: KINOMEscan binding; conditions: read-out: Percent Control
T8 construct: JAK1(JH2domain-pseudokinase); purchased Eurofins DiscoverX KINOMEscan

GRK2 = biological target: T9, GRK2 (Homo sapiens, UniProt P25098); assay: KINOMEscan binding; conditions: read-out: Percent Control
T9 construct: purchased Eurofins DiscoverX KINOMEscan

LIMK1 = biological target: T10, LIMK1 (Homo sapiens, UniProt P53667); assay: KINOMEscan binding; conditions: read-out: Percent Control
T10 construct: purchased Eurofins DiscoverX KINOMEscan

RET(M918T) = biological target: T11, RET(M918T) (Homo sapiens, UniProt P07949, M918T); assay: KINOMEscan binding; conditions: read-out: Percent Control
T11 construct: purchased Eurofins DiscoverX KINOMEscan

SgK110 = biological target: T12, SgK110 (Homo sapiens, UniProt P0C264); assay: KINOMEscan binding; conditions: read-out: Percent Control
T12 construct: purchased Eurofins DiscoverX KINOMEscan

RIOK1 = biological target: T13, RIOK1 (Homo sapiens, UniProt Q9BRS2); assay: KINOMEscan binding; conditions: read-out: Percent Control
T13 construct: purchased Eurofins DiscoverX KINOMEscan

ROCK2 = ROCK2 (Homo sapiens, UniProt O75116); assay: KINOMEscan binding; design: purchased Eurofins DiscoverX (KINOMEscan service); conditions: read-out: Percent Control
PKN2 = biological target: T14, PKN2 (Homo sapiens, UniProt Q16513); assay: KINOMEscan binding; conditions: read-out: Percent Control
T14 construct: purchased Eurofins DiscoverX KINOMEscan

PIP5K1A = biological target: T15, PIP5K1A (Homo sapiens, UniProt Q99755); assay: KINOMEscan binding; conditions: read-out: Percent Control
T15 construct: purchased Eurofins DiscoverX KINOMEscan

GRK1 = biological target: T16, GRK1 (Homo sapiens, UniProt Q15835); assay: KINOMEscan binding; conditions: read-out: Percent Control
T16 construct: purchased Eurofins DiscoverX KINOMEscan

AMPK-alpha2 = biological target: T17, AMPK-alpha2 (Homo sapiens, UniProt P54646); assay: KINOMEscan binding; conditions: read-out: Percent Control
T17 construct: purchased Eurofins DiscoverX KINOMEscan

ERN1 = biological target: T18, ERN1 (Homo sapiens, UniProt O75460); assay: KINOMEscan binding; conditions: read-out: Percent Control
T18 construct: purchased Eurofins DiscoverX KINOMEscan

TRKC = biological target: T19, TRKC (Homo sapiens, UniProt Q16288); assay: KINOMEscan binding; conditions: read-out: Percent Control
T19 construct: purchased Eurofins DiscoverX KINOMEscan

[3] = test system: Pparg and Cebpa genes in 3T3-L1 cells; assay: qRT-PCR of adipogenic genes during differentiation; type: cell-based; conditions: 3T3-L1 during differentiation; KD025 5 μM, CX-4945 10 μM, Y-27632 10 μM
Procedure: The preadipocyte 3T3-L1 cell line was kindly provided by Dr. Hyun-Sung Park (University of Seoul) and cultured in Dulbecco’s modified Eagle’s medium (DMEM, Sigma-Aldrich) supplied with 10% heat-inactivated newborn calf serum (Invitrogen, CA, USA), 100 units/mL penicillin, and 100 µg/mL streptomycin (Cellgro, VA, USA). The cells were maintained in an incubator at 37 °C and 5% CO2. To initiate differentiation, the cells were incubated for additional days after 100% confluence and then further incubated in a medium containing fetal bovine serum (FBS) and a differentiation cocktail (DMI, 1 μM dexamethasone, 0.5 mM 3-isobutyl-1-methylxanthine, and 5 μg/mL insulin) as previously described. In brief, at day 3, the culture medium was replaced with DMEM/10%FBS containing 5 µg/mL insulin. Then, growth medium was changed every 2 days.
Total RNA was extracted using easy-BLUE (iNtRON Biotechnology, Dajeon, Korea) in accordance with the manufacturer’s protocol. cDNA was synthesized from 2 µg of total RNA using TOPscript^TM Drymix Kit (Enzynomics, Dajeon, Korea). qRT-PCR was performed using TB Green ® Premix Ex Taq^TM II (Tli RNAse H Plus) (TaKaRa, Japan) with Applied Biosystems QuantStudio™ 1 Real-Time PCR System (Thermo Fisher Scientific, Waltham, MA, USA). Gene expression data were normalized based on the use of the same amount of total RNA samples. The relative fold change of gene expression was calculated using the ∆Ct method.

BMPR1A = biological target: T20, BMPR1A (Homo sapiens, UniProt P36894); assay: KINOMEscan binding; conditions: read-out: Percent Control
T20 construct: purchased Eurofins DiscoverX KINOMEscan

CAMK1 = biological target: T21, CAMK1 (Homo sapiens, UniProt Q14012); assay: KINOMEscan binding; conditions: read-out: Percent Control
T21 construct: purchased Eurofins DiscoverX KINOMEscan

CDK5 = biological target: T22, CDK5 (Homo sapiens, UniProt Q00535); assay: KINOMEscan binding; conditions: read-out: Percent Control
T22 construct: purchased Eurofins DiscoverX KINOMEscan

MRCKA = biological target: T23, MRCKA (Homo sapiens, UniProt Q5VT25); assay: KINOMEscan binding; conditions: read-out: Percent Control
T23 construct: purchased Eurofins DiscoverX KINOMEscan

ERK1 = biological target: T24, ERK1 (Homo sapiens, UniProt P27361); assay: KINOMEscan binding; conditions: read-out: Percent Control
T24 construct: purchased Eurofins DiscoverX KINOMEscan

MERTK = biological target: T25, MERTK (Homo sapiens, UniProt Q12866); assay: KINOMEscan binding; conditions: read-out: Percent Control
T25 construct: purchased Eurofins DiscoverX KINOMEscan

RIPK2 = biological target: T26, RIPK2 (Homo sapiens, UniProt O43353); assay: KINOMEscan binding; conditions: read-out: Percent Control
T26 construct: purchased Eurofins DiscoverX KINOMEscan

LATS2 = biological target: T27, LATS2 (Homo sapiens, UniProt Q9NRM7); assay: KINOMEscan binding; conditions: read-out: Percent Control
T27 construct: purchased Eurofins DiscoverX KINOMEscan

MELK = biological target: T28, MELK (Homo sapiens, UniProt Q14680); assay: KINOMEscan binding; conditions: read-out: Percent Control
T28 construct: purchased Eurofins DiscoverX KINOMEscan

INSR = biological target: T29, INSR (Homo sapiens, UniProt P06213); assay: KINOMEscan binding; conditions: read-out: Percent Control
T29 construct: purchased Eurofins DiscoverX KINOMEscan

PIK3CA(M1043I) = biological target: T30, PIK3CA(M1043I) (Homo sapiens, UniProt P42336, M1043I); assay: KINOMEscan binding; conditions: read-out: Percent Control
T30 construct: purchased Eurofins DiscoverX KINOMEscan

ERK3 = biological target: T31, ERK3 (Homo sapiens, UniProt Q16659); assay: KINOMEscan binding; conditions: read-out: Percent Control
T31 construct: purchased Eurofins DiscoverX KINOMEscan

T18 sequence (O75460 19-977): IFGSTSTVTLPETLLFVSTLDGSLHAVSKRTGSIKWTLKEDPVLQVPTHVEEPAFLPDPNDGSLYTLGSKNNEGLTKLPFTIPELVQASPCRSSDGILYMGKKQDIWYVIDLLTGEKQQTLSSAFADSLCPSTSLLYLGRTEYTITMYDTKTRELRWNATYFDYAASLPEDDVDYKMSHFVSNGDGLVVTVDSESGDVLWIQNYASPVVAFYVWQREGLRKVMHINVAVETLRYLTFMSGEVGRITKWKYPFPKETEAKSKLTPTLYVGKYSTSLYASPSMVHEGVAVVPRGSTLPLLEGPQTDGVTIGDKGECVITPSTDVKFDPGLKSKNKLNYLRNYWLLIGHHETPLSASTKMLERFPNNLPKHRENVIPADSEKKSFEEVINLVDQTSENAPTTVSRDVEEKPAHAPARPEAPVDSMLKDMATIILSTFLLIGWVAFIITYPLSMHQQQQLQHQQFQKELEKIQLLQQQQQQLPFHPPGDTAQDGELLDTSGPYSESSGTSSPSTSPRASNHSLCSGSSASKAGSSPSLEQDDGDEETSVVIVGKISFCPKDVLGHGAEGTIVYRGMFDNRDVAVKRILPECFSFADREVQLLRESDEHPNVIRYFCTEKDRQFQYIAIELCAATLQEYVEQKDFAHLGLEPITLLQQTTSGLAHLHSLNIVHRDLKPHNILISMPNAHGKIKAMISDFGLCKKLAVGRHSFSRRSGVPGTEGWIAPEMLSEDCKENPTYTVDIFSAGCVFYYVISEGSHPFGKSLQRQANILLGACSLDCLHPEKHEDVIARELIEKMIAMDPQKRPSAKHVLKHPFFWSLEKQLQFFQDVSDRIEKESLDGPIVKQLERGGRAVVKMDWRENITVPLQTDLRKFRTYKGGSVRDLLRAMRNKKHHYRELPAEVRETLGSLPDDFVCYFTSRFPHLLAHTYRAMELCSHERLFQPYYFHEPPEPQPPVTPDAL
T25 sequence (Q12866 21-999): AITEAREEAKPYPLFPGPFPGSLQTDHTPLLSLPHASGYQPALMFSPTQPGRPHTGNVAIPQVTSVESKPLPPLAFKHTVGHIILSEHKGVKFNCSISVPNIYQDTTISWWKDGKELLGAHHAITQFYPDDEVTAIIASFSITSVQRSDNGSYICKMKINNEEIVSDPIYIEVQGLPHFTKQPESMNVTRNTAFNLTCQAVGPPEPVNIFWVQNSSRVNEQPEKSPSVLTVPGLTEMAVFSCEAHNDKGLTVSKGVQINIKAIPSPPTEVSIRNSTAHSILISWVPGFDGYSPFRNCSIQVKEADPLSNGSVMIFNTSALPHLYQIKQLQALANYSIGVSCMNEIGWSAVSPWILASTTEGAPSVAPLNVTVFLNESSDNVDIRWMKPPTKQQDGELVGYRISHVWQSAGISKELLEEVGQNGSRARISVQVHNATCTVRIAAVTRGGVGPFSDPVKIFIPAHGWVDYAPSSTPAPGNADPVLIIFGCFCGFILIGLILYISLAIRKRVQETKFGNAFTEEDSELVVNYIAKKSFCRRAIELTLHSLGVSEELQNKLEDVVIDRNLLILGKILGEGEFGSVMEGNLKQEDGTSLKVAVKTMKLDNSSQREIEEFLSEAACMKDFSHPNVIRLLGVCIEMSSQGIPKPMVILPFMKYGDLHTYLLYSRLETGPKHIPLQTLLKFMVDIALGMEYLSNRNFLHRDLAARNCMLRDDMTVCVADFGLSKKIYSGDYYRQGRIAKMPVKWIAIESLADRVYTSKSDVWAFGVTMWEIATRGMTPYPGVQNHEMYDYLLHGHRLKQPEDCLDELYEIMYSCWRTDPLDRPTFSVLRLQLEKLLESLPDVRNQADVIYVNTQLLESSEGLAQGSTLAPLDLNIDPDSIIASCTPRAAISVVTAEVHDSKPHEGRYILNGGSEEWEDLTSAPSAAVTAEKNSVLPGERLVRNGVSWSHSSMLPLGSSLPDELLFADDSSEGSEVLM
T20 sequence (P36894 24-532): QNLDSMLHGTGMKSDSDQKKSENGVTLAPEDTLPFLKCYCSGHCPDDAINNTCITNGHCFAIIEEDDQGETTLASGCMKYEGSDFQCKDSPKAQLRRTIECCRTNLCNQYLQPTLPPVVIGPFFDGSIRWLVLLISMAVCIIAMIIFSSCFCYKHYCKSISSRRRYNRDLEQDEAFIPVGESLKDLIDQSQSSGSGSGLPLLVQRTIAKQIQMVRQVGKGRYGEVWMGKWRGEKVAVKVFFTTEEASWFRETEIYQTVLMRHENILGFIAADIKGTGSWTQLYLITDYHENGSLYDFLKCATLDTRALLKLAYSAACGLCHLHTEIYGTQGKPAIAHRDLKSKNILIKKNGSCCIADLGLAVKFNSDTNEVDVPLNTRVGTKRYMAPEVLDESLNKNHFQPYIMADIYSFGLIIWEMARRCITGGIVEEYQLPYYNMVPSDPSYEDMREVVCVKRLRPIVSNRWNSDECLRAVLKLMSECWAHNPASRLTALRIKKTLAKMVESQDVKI
Sequence of ROCK2 (O75116 whole entry): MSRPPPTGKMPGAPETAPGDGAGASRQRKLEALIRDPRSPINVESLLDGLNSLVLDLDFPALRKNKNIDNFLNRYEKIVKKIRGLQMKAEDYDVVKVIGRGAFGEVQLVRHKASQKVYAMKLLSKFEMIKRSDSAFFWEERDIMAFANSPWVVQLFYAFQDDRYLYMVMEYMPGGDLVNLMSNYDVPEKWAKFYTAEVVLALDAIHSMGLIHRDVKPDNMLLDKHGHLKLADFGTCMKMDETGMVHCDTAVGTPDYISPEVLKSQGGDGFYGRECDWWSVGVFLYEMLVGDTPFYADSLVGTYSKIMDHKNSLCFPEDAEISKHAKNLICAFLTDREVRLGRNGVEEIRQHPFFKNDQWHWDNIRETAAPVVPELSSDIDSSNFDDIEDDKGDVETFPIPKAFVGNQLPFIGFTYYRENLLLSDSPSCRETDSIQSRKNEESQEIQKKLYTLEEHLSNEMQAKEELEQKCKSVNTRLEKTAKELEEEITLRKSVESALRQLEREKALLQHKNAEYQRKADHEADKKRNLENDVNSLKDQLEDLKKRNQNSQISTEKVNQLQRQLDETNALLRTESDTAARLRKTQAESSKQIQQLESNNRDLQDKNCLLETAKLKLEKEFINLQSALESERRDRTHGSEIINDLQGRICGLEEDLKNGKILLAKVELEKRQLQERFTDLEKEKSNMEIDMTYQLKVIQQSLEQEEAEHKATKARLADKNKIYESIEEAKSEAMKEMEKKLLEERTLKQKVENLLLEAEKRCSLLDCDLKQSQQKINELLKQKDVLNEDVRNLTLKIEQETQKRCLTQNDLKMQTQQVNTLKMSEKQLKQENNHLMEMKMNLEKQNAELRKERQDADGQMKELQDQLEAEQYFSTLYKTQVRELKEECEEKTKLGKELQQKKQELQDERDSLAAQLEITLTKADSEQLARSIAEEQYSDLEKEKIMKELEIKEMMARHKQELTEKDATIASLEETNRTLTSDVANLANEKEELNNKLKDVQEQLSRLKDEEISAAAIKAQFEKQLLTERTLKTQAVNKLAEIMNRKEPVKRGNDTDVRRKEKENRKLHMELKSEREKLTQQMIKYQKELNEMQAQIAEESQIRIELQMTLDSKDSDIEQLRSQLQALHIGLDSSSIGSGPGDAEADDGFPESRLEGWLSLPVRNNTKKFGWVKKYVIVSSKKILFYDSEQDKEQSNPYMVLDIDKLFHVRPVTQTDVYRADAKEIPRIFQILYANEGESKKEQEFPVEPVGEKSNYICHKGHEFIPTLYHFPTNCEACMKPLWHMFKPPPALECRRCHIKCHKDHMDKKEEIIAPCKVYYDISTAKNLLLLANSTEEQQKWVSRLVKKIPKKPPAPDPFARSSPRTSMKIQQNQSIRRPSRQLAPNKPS
T9 sequence (P25098 whole entry): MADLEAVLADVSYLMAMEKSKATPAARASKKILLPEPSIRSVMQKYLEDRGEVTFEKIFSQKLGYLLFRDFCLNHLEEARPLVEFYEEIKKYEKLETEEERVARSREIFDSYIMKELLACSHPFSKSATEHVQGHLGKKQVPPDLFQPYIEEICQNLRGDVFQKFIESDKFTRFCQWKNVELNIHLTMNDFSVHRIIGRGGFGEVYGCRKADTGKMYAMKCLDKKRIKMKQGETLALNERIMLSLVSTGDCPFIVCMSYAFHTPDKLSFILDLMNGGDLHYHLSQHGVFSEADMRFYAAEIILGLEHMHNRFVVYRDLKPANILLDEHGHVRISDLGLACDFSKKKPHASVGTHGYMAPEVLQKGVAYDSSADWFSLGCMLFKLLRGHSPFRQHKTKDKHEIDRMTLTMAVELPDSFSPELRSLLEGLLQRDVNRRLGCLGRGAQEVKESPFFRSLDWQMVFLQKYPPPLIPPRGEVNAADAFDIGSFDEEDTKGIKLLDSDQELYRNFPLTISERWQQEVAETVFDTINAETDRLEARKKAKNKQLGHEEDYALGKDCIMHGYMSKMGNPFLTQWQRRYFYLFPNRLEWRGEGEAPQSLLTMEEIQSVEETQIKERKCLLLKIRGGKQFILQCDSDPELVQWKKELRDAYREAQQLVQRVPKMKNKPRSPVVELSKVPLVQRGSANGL
T5 sequence (P29597 888-1187 limits assumed): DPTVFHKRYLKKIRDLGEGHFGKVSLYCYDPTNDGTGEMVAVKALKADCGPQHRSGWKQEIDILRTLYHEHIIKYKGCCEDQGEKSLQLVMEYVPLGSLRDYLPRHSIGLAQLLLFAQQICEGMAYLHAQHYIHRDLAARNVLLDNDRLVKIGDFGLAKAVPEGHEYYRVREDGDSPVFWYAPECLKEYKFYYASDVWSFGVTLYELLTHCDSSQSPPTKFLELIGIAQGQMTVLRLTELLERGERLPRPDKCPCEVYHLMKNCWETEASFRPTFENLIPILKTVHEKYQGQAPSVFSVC

With `CC(C)NC(=O)COc1cccc(-c2nc(Nc3ccc4[nH]ncc4c3)c3ccccc3n2)c1` [KD025, 2-(3-(4-((1H-indazol-5-yl)amino)quinazolin-2-yl)phenoxy)-N-isopropylacetamide] the remaining binding at 10 µM (STK33) was 67%, the remaining binding at 10 µM (EPHA7) was 100% and the remaining binding at 10 µM (FLT3(R834Q)) was 69%. For the same molecule, the remaining binding at 10 µM (TAOK2) was 83%, the remaining binding at 10 µM [1] was 95% and the remaining binding at 10 µM (ERBB4) was 57%. For the same molecule, the remaining binding at 10 µM (PKN1) was 97%, the remaining binding at 10 µM [2] was 39% and the remaining binding at 10 µM (GRK2) was 89%. The remaining binding at 10 µM (LIMK1) was 92%, the remaining binding at 10 µM (RET(M918T)) was 66% and the remaining binding at 10 µM (SgK110) was 100%. The remaining binding at 10 µM (RIOK1) was 6.2%, the remaining binding at 10 µM (ROCK2) was 0.05% and the remaining binding at 10 µM (PKN2) was 84%. For the same molecule, the remaining binding at 10 µM (PIP5K1A) was 6%, the remaining binding at 10 µM (GRK1) was 64% and the remaining binding at 10 µM (AMPK-alpha2) was 75%. The remaining binding at 10 µM (ERN1) was 98%, the remaining binding at 10 µM (TRKC) was 100% and the “expression of Pparg and Cebpa genes” value [3] was “suppressed”. For the same molecule, the remaining binding at 10 µM (BMPR1A) was 89%, the remaining binding at 10 µM (CAMK1) was 100% and the remaining binding at 10 µM (CDK5) was 83%. The remaining binding at 10 µM (MRCKA) was 57%, the remaining binding at 10 µM (ERK1) was 63% and the remaining binding at 10 µM (MERTK) was 58%. It also gave a remaining binding at 10 µM (RIPK2) of 92%, a remaining binding at 10 µM (LATS2) of 48% and a remaining binding at 10 µM (MELK) of 83%. For the same molecule, the remaining binding at 10 µM (INSR) was 94%, the remaining binding at 10 µM (PIK3CA(M1043I)) was 48% and the remaining binding at 10 µM (ERK3) was 64%.
